Experimental data as given in article PMC8448162, “Single- and Multiple-Ascending-Dose Study of the Safety, Tolerability, and Pharmacokinetics of the Polymyxin Derivative SPR206” (Antimicrobial Agents and Chemotherapy, 2021).
Positions of bridges follow the written chain, without caps; N, C: chain ends. Non-standard residues stand in square brackets, D forms with d. Residues, ends and D or L forms follow the SMILES beside them. *: point of attachment. X1 = NC[C@@H](CC(=O)*)c1cccc(Cl)c1; Dab = NCC[C@H](N)C(=O)O; Dap = NC[C@H](N)C(=O)O

Assay: clinical
Design: species or system human
Details: in vivo; for AUC(0-inf): AUC0–inf; for clearance: CL; for Vd: Vz
Method: This was a single-center, phase 1, randomized, double-blind, placebo-controlled, first-in-human study to assess the safety, tolerability, and PK of SPR206 following SAD and MAD administrations (Fig. 7). In the SAD phase, subjects received a single i.v. dose of SPR206, and in the MAD phase, subjects received i.v. doses of SPR206 every 8 h (q8h) over a period of 7 to 14 days. SPR206 was administered as a 1 h i.v. infusion.
Maximum plasma concentration (Cmax), area under the concentration-time curve from time zero to last measurable time point (AUC0–t), area under the concentration-time curve from time zero to infinity (AUC0–inf), area under the concentration-time curve from time zero to tau (AUC0–tau), time to maximum concentration (Tmax), terminal elimination rate constant (kel), terminal half-life (t1/2), terminal clearance (CL), and volume of distribution (Vz) were determined. In addition, area under the concentration-time curve from 0 to 24 h after the start of infusion (AUC0–24) was determined for the SAD phase, and area under the concentration-time curve from time zero to 8 h from start of infusion (AUC0–8) on day 1 and 0 to 48 h (AUC0–48) following the last dose on day 14 as well as predose trough concentrations were determined for the MAD phase. Urine parameters included cumulative amount of drug excreted in successive urine intervals (Ae), renal clearance (CLR), fraction of cumulative fraction of dose recovered in urine as unchanged drug (Fe), and percentage fraction of cumulative fraction of dose recovered in urine as unchanged drug (Fe%). PK parameters were determined by noncompartmental analysis using Phoenix WinNonlin 8.1.
For the SAD phase, blood samples were obtained predose and at 30, 60, 75, 90, 105, 120, and 150 min and at 3, 5, 8, 12, and 24 h following the start of infusion. Urine was collected for PK assessment predose and over the intervals of 0 to 4 h, 4 to 8 h, 8 to 12 h, and 12 to 24 h after the start of infusion.
In the MAD phase, plasma samples for PK analysis were collected (i) on day 1—pre-dose and at 30, 60, 75, 90, 105, 120, and 150 min and at 3, 5, and 8 h following start of the first infusion; (ii) prior to the morning dose (within 10 min) on days 2, 3, 5, 7, 9, 11, and 13; and (iii) predose and 30, 75, 90, 105, 120, and 150 min and 3, 5, 8, and 12 h (day 14), 24, 36 (day 15), and 48 h (day 16) following start of the last infusion. Urine was collected for PK assessment on day 1 predose, over the intervals 0 to 4 h and 4 to 8 h after start of first infusion, and on days 14 and 15 over the intervals 0 to 4 h, 4 to 8 h, 8 to 12 h, and 12 to 24 h after start of day 14 infusion. Total 24-h urine for calculating CrCl was collected from the morning of day −1 to predose on day 1 and on days 15 and 16 over the interval from 24 to 48 h after the start of the day 14 infusion. Urine creatinine concentrations were measured using 24-h collections prior to the first dose on day 1 and over the 24 to 48 h following start of infusion of the last dose (day 14). Plasma and urine samples for SPR206 levels were analyzed using a validated liquid chromatography-tandem mass spectrometry (LC-MS/MS) method. The assay range for SPR206 was 50 to 5,000 ng/ml in plasma and 100 to 50,000 ng/ml in urine. In plasma, assay precision was 1.3 to 7.7%, accuracy was 1.2 to 9.5%, stability was 194 h at 4°C, and reproducibility was 98.4%. In urine, assay precision was 1.7 to 7.5%, accuracy was −4.8 to 7.3%, stability was 147 h at 4°C, and reproducibility was 97.8%.
Plasma and urine concentrations and PK parameters for SPR206 were summarized for each treatment using descriptive statistics. In the SAD/MAD study, geometric means were calculated for AUC and Cmax. Analyses using linear models were performed to assess dose proportionality (both single dose and multiple dose), time dependence, accumulation, and attainment of steady state after multiple doses. […]

CC(C)C[C@@H]1NC(=O)[C@@H](Cc2ccccc2)NC(=O)[C@H](CCN)NC(=O)[C@@H](NC(=O)[C@H](CN)NC(=O)[C@@H](NC(=O)C[C@H](CN)c2cccc(Cl)c2)[C@@H](C)O)CCNC(=O)[C@H]([C@@H](C)O)NC(=O)[C@H](CCN)NC(=O)[C@H](CCN)NC1=O [SPR206] (X1-T[Dap][Dab][Dab][dF]L[Dab][Dab]T; lactam 3-C (inferred))
Tmax (human): 1.1 to 1.3 h | accumulation ratio for AUC0–inf (human): 1.3-1.8 | accumulation ratio for Cmax (human): 1.1-1.3 | geometric CV for AUC0-inf (human): 6.9-17.4% | AUC0–8 (human, 25 mg): 4,391 ± 740 h · ng/ml | AUC0–inf (human, 25 mg): 5,197 ± 945 h · ng/ml | AUC%ext (human, 25 mg): 10.0 ± 4.5 ng·h/mL | CL (human, 25 mg): 4.9 ± 0.9 L/h | Cmax (human, 25 mg): 1,410 ± 241 ng/ml | Vz (human, 25 mg): 21.3 ± 3.6 L | half-life (human, 25 mg): 2.7 ± 0.2 h | AUC(0-t) (human, 25 mg, AUC0–8): 5880 ng·h/mL | AUC(0-t) (human, 25 mg, AUC0–48): 7680 ng·h/mL | AUC(0-inf) (human, 25 mg): 7690 ng·h/mL | clearance (human, 25 mg): 73.3 mL/min | Cmax (human, 25 mg, Cmax): 1610 ng/mL | half-life (human, 25 mg, Half-life): 4 ± 0.6 h | Vd (human, 25 mg): 18.9 ± 2.6 L | AUC0–8 (human, 50 mg): 7,955 ± 951 h · ng/ml | AUC0–inf (human, 50 mg): 9,243 ± 1,417 h · ng/ml | CL (human, 50 mg): 5.5 ± 0.8 L/h | Cmax (human, 50 mg): 2,525 ± 413 ng/ml | half-life (human, 50 mg): 2.7 ± 0.3 h | AUC(0-t) (human, 50 mg, AUC0–8): 10000 ng·h/mL | AUC(0-t) (human, 50 mg, AUC0–48): 12400 ng·h/mL | AUC(0-inf) (human, 50 mg): 12400 ng·h/mL | clearance (human, 50 mg): 83.3 mL/min | Cmax (human, 50 mg, Cmax): 2900 ng/mL | half-life (human, 50 mg, Half-life): 3.5 ± 0.9 h | Vd (human, 50 mg): 21.5 ± 1.8 L | AUC0–48 (human, 100 mg): 29,828 ± 5,112 h · ng/ml | AUC(0-t) (human, 100 mg, AUC0–8): 21300 ng·h/mL | AUC(0-t) (human, 100 mg, AUC0–48): 27500 ng·h/mL | AUC(0-inf) (human, 100 mg): 27700 ng·h/mL | clearance (human, 100 mg): 80 mL/min | Cmax (human, 100 mg, Cmax): 6340 ng/mL | Vd (human, 100 mg): 20.8 ± 2.9 L | AUC0–8 (human, 150 mg): 27,492 ± 3,452 h · ng/ml | AUC0–inf (human, 150 mg): 30,981 ± 4,189 h · ng/ml | CL (human, 150 mg): 4.9 ± 0.6 L/h | Cmax (human, 150 mg): 8,990 ± 1,056 ng/ml | Vz (human, 150 mg): 19.6 ± 3.2 L | higher plasma AUC0–8 and Cmax relative to the mean values for the cohort (human, 150 mg): approximately 23% | AUC(0-t) (human, 150 mg, AUC0–8): 41500 ng·h/mL | AUC(0-t) (human, 150 mg, AUC0–48): 55500 ng·h/mL | AUC(0-inf) (human, 150 mg): 56000 ng·h/mL | clearance (human, 150 mg): 61.7 mL/min | Cmax (human, 150 mg, Cmax): 11500 ng/mL | Vd (human, 150 mg): 17.1 ± 2.1 L | half-life (human, half-life): 2.4 to 4.1 h | Tmax (human, iv, 10 mg): 1 h | AUC(0-t) (human, iv, 10 mg, AUC0–8): 1560 ng·h/mL | AUC(0-inf) (human, iv, 10 mg): 1810 ng·h/mL | clearance (human, iv, 10 mg): 93.3 mL/min | Cmax (human, iv, 10 mg, Cmax): 495 ± 46.5 ng/mL | half-life (human, iv, 10 mg, Half-life): 2.6 ± 0.1 h | Vd (human, iv, 10 mg): 21 ± 3.4 L | Tmax (human, iv, 25 mg): 1 h | AUC(0-t) (human, iv, 25 mg, AUC0–8): 3810 ng·h/mL | AUC(0-inf) (human, iv, 25 mg): 4440 ng·h/mL | clearance (human, iv, 25 mg): 96.7 mL/min | Cmax (human, iv, 25 mg, Cmax): 1290 ng/mL | half-life (human, iv, 25 mg, Half-life): 2.8 ± 0.2 h | Vd (human, iv, 25 mg): 23.5 ± 4.3 L | Tmax (human, iv, 50 mg): 1 h | AUC(0-t) (human, iv, 50 mg, AUC0–8): 9380 ng·h/mL | AUC(0-inf) (human, iv, 50 mg): 10700 ng·h/mL | clearance (human, iv, 50 mg): 78.3 mL/min | Cmax (human, iv, 50 mg, Cmax): 3420 ng/mL | half-life (human, iv, 50 mg, Half-life): 2.6 ± 0.3 h | Vd (human, iv, 50 mg): 17.8 ± 2.9 L | Tmax (human, iv, 100 mg): 1.1 h | AUC(0-t) (human, iv, 100 mg, AUC0–8): 17300 ng·h/mL | AUC(0-inf) (human, iv, 100 mg): 20400 ng·h/mL | clearance (human, iv, 100 mg): 83.3 mL/min | Cmax (human, iv, 100 mg, Cmax): 5330 ng/mL | half-life (human, iv, 100 mg, Half-life): 3 ± 0.3 h | Vd (human, iv, 100 mg): 21.4 ± 2.8 L | Tmax (human, iv, 200 mg): 1.1 h | AUC(0-t) (human, iv, 200 mg, AUC0–8): 34500 ng·h/mL | AUC(0-inf) (human, iv, 200 mg): 40900 ng·h/mL | clearance (human, iv, 200 mg): 81.7 mL/min | Cmax (human, iv, 200 mg, Cmax): 11300 ng/mL | half-life (human, iv, 200 mg, Half-life): 3.4 ± 0.7 h | Vd (human, iv, 200 mg): 24 ± 3.1 L | Tmax (human, iv, 300 mg): 1.1 h | AUC(0-t) (human, iv, 300 mg, AUC0–8): 57700 ng·h/mL | AUC(0-inf) (human, iv, 300 mg): 71000 ng·h/mL | clearance (human, iv, 300 mg): 70 mL/min | Cmax (human, iv, 300 mg, Cmax): 18200 ng/mL | half-life (human, iv, 300 mg, Half-life): 4.1 ± 0.4 h | Vd (human, iv, 300 mg): 25.4 ± 3.3 L | Tmax (human, iv, 400 mg): 1.1 h | AUC(0-t) (human, iv, 400 mg, AUC0–8): 89300 ng·h/mL | clearance (human, iv, 400 mg): 61.7 mL/min | Cmax (human, iv, 400 mg, Cmax): 25400 ng/mL | half-life (human, iv, 400 mg, Half-life): 3.7 ± 0.5 h | Vd (human, iv, 400 mg): 19.4 ± 3.2 L | dose proportionality estimate (90% CI) for AUC0–inf: 1.11 (1.07, 1.14) | dose proportionality estimate (90% CI) for AUC0–last: 1.14 (1.11, 1.18) | dose proportionality estimate (90% CI) for Cmax: 1.05 (1.02, 1.08) | estimate of the exponent from the power model (90% CI) for AUC0–inf: 1.03 (0.94, 1.12) | estimate of the exponent from the power model (90% CI) for AUC0–last: 1.07 (0.98, 1.16) | estimate of the exponent from the power model (90% CI) for Cmax: 1.03 (0.96, 1.10) | intersubject variability in exposure: 10-25% | steady state achieved (based on Ctrough): ≤ 2 days
